Data: patent publication US20250032458A1, “TREATMENT OF CANCER WITH AN FGFR KINASE INHIBITOR” (Kinnate Biopharma Inc., priority 2021, published 2025)
Like-named read-outs stand apart in the source and are kept apart here.

How the values were obtained:
SNU-16 cells = assay: Cell proliferation, 5-day CellTiter-Glo; format: cell-based; conditions: Homo sapiens, 120 h; SNU-16, 5 days; read-out: 5-Day CTG EC50
KATO-III cells = assay: Cell proliferation, 5-day CellTiter-Glo; format: cell-based; conditions: Homo sapiens, 120 h, 5 days, read-out: 5-Day CTG EC50
RT-112 cells = assay: Cell proliferation, 5-day CellTiter-Glo; format: cell-based; conditions: Homo sapiens, 120 h; RT-112, 5 days; read-out: 5-Day CTG EC50
RT-4 cells = assay: Cell proliferation, 5-day CellTiter-Glo; format: cell-based; conditions: Homo sapiens, 120 h; RT-4, 5 days; read-out: 5-Day CTG EC50
SW-780 cells = assay: Cell proliferation, 5-day CellTiter-Glo; format: cell-based; conditions: Homo sapiens, SW780, 120 h; SW-780, 5 days; read-out: 5-Day CTG EC50
[1] = tested on: human RT-112 urinary bladder transitional cell carcinoma xenograft (FGFR3-TACC3 fusion); conditions: for ΔT/ΔC / Final TV: 21 days; for Final TV: mean ± SEM
Excerpt: (§1) Groups and treatments were started when the mean tumor volume reached approximately 200-250 mm^3. Mice were assigned to respective groups based on their starting tumor volume and body weight such that the average values for both parameters were balanced for each treatment group.

[2] = tested on: human SNU-16 gastric cancer xenograft (FGFR2 gene amplification); conditions: for ΔT/ΔC / Final TV: 21 days; for Final TV: mean ± SEM
Excerpt: as §1

[3] = Exposure in mice bearing RT-112 xenografts; conditions: mouse, in vivo, PO QD 2-15 mg/kg, 24-hour period following the last dose
Protocol: (§2) Three animals in the 15 mg/kg cohort lost >10% of their body weight during the course of treatment but recovered by end of study.

[4] = Exposure in mice bearing SNU-16 xenografts; conditions: mouse, in vivo, PO QD 2-15 mg/kg, 24-hour period following the last dose
[5] = Tolerability / body weight in RT-112 xenograft mice; format: in vivo; conditions: RT-112 model
Protocol: as §2

[6] = Tolerability / body weight in SNU-16 xenograft mice; format: in vivo; conditions: SNU-16 model, all tested doses and schedules; lack of significant body weight changes
Excerpt: […]. Treatment was initiated when tumor volumes were approximately 200-250 mm^3 (actual mean TV for all groups was 262 mm^3).

TNK1 = target: T1, TNK1 (Homo sapiens, UniProt Q13470); assay: Kinome selectivity screen by mobility shift assay (321 kinases); conditions: read-out: % Inhibition 1 μM
T1 sequence (Q13470 1-666): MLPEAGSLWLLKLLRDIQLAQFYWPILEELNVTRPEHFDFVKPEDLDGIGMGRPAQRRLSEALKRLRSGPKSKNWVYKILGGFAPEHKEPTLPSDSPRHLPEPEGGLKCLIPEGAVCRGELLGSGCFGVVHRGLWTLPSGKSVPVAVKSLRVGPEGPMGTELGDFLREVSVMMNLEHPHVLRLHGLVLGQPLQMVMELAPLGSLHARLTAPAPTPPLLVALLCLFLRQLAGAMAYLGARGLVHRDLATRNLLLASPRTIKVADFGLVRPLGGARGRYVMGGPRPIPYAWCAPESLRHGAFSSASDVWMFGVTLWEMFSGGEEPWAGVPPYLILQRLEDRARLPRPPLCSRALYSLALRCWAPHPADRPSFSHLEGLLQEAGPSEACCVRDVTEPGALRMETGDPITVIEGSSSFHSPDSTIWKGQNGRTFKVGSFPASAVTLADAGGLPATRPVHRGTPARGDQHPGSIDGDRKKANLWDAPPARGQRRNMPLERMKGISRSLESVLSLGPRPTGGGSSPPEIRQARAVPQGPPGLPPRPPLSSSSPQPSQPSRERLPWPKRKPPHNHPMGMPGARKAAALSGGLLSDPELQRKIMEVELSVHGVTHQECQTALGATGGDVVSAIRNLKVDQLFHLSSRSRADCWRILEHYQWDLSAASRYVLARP

LOK (AKA STK10) = LOK (AKA STK10) (Homo sapiens, UniProt O94804); assay: as above; conditions: read-out: % Inhibition 1 μM
panel of 321 kinases = assay: Kinome selectivity screen by mobility shift assay (whole panel); conditions: 1 μM
[7] = tested on: endogenous FGFR in five human tumor cell lines; conditions: read-out: EC50 values, inhibition of endogenous FGFR

Chain of LOK (AKA STK10) (O94804 whole entry): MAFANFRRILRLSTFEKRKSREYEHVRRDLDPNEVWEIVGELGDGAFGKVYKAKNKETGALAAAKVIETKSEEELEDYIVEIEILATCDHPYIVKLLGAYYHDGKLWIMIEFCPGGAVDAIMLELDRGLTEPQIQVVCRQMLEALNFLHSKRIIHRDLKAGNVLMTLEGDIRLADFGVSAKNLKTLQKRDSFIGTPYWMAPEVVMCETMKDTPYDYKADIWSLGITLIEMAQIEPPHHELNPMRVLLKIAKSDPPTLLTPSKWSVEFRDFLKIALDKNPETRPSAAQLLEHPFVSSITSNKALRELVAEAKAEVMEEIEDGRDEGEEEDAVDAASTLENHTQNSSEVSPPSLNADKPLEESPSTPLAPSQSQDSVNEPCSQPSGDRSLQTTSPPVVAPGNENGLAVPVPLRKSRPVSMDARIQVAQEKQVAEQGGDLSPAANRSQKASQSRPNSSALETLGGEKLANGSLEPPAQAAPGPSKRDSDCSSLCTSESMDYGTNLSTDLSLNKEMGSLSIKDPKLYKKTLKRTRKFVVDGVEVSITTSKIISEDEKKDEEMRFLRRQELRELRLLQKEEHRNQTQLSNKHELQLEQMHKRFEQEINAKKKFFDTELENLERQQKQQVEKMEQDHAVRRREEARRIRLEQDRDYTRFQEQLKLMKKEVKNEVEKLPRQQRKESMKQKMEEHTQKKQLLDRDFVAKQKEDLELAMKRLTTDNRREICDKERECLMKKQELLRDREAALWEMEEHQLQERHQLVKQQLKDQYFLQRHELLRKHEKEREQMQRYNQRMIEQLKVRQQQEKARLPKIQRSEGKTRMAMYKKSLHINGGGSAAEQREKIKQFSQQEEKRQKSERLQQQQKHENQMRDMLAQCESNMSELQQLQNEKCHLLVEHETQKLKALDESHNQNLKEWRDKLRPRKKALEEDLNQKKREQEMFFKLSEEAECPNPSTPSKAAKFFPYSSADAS

C=CC(=O)N1C[C@@H](n2nc(C#Cc3c(F)cc4c(ncn4C4CC4)c3F)c(C(N)=O)c2NC)C[C@@H]1COC [Compound 1, 1-((3S,5R)-1-acryloyl-5-(methoxymethyl)pyrrolidin-3-yl)-3-((1-cyclopropyl-4,6-difluoro-1H-benzo[d]imidazol-5-yl)ethynyl)-5-(methylamino)-1H-pyrazole-4-carboxamide]
EC50 (SNU-16 cells): 3.89 nM | EC50 (KATO-III cells): 5.19 nM | EC50 (RT-112 cells): 4.14 nM | EC50 (RT-4 cells): 5.96 nM | EC50 (SW-780 cells): 4.14 nM | ΔT/ΔC ([1]; RT-112, 2 mg/kg QD PO): 20% | Final TV ([1]; RT-112, 2 mg/kg QD PO): 446 ± 49 mm^3 | animals exhibiting tumor regression ([1]; RT-112, 5 mg/kg QD): 4 of 9 | ΔT/ΔC ([1]; RT-112, 5 mg/kg QD PO): 9% | Final TV ([1]; RT-112, 5 mg/kg QD PO): 343 ± 57 mm^3 | animals exhibiting tumor regression ([1]; RT-112, 15 mg/kg QD): 4 of 9 | ΔT/ΔC ([1]; RT-112, 15 mg/kg QD PO): 1% | Final TV ([1]; RT-112, 15 mg/kg QD PO): 274 ± 48 mm^3 | ΔT/ΔC ([2]; SNU-16, 2 mg/kg QD PO): 31% | Final TV ([2]; SNU-16, 2 mg/kg QD PO): 497 ± 22 mm^3 | ΔT/ΔC ([2]; SNU-16, 5 mg/kg QD PO): 19% | Final TV ([2]; SNU-16, 5 mg/kg QD PO): 410 ± 20 mm^3 | ΔT/ΔC ([2]; SNU-16, 15 mg/kg QD PO): 7% | Final TV ([2]; SNU-16, 15 mg/kg QD PO): 313 ± 13 mm^3 | animals with tumor regression ([2]; SNU-16, 15 mg/kg QD cohort): one | AUC(0-t) [3]: 1320 to 9760 ng·h/mL | AUC(0-t) [4]: 1090 to 9760 ng·h/mL | average weight loss ([5]; 15 mg/kg QD): 5.4% | animals that lost >10% of their body weight during treatment (recovered by end of study) ([5]; 15 mg/kg cohort (9 animals)): Three | tolerability ([5]; all of the tested doses (2, 5, 15 mg/kg QD)): well tolerated | tolerability [6]: well tolerated | inhibition at 1 µM (TNK1): 89.5% | inhibition at 1 µM (LOK (AKA STK10)): 64.6% | number of non-FGFR kinases with >40% inhibition (panel of 321 kinases): 2 | EC50 [7]: 1 to 6 nM
